Where “and” joins values, the source holds several entries; their conditions need not be identical. Equal entries are not always repeated. Marks after values point to notes of the source that are not given here.

Four molecules from patent publication US8383647B2, “Quinoline derivative” (Takeda Pharmaceutical Company Limited, priority 2009, dated 2013) can be followed below.

Series [1] deals with T1, HERG (Homo sapiens, UniProt Q12809).
T1 construct: host or cells: HERG.T.HEK (HEK cells, Geneticin-selected)
Nature of the series: Evaluation of HERG inhibitory activity (whole-cell patch clamp, HERG.T.HEK cells). The class given is cell-based. The following applies: peak tail current. The source says: MEM medium, MEM nonessential amino acid solution, sodium pyruvate solution and G418 sulfate solution (Geneticin) were purchased from Invitrogen Corporation (Carlsbad, Calif.). Bovine serum albumin (BSA, Fatty Acid Free) was a product of Wako Pure Chemical Industries, Ltd. (Osaka, Japan). Fetal bovine serum (FCS) was a product of Trau Scientific Ltd. (Melbourne, Australia).
As HERG expression cell HERG.T.HEK, the cell obtained from Wisconsin ALUMNI Research Foundation was used. HERG.T.HEK was maintained and passaged at 37° C. in the presence of 5% CO2 using an MEM medium containing 10% FCS, 1 mM MEM nonessential amino acid, 1 mM sodium pyruvate and 500 μg/ml Geneticin.
80-90% confluent cells were collected by a trypsin treatment and plated on an IVF dish (Falcon, Franklin Lakes, N.J.). After 2-3 hr, cells were adhered to a glass electrode (resistance value 2-3 MΩ) filled with an electrode internal fluid (7 mM NaCl, 130 mM KCl, 1 mM MgCl2, 5 mM HEPES, 5 mM EGTA, 5 mM ATP-Na: pH 7.2) while perfusing with an extracellular fluid (137 mM NaCl, 4 mM KCl, 1 mM MgCl2, 1.8 mM CaCl2, 10 mM HEPES, 11 mM dextrose: pH 7.4), using a patch clamp amplifier AXOPATCH 200B (Axon instruments, Foster City, Calif.), whereby formation of whole-cell configuration and stimulation by voltage clamp protocol were performed (holding potential −75 mV, primary voltage 10 mV: 0.5 sec, secondary voltage −40 mV: 0.5 sec, stimulation frequency 5 sec (Example 31 and Example 50) or 10 sec (Comparative Example 1 and Comparative Example 2). A preliminary stimulation was applied and the HERG electric current value (peak tail current) was measured when the electric current waveform was stabilized.
For measurement of the HERG electric current with addition of the test compound, the cells were first perfused with the extracellular fluid and, when the waveform was stabilized, the cells were perfused with an extracellular fluid containing 10 μm of a test compound. When the electric current waveform was stabilized under respective perfuse conditions, the HERG electric current was measured.
The HERG electric current inhibitory rate (%) of the test compound was calculated with the HERG electric current value without addition of the test compound as 100%.
(The patch-clamp technique gives a direct electrical read-out from membranes.)

The test system of series [2] is HepG2 cells. Nature of the series: Evaluation of PLsis (NBD-PE uptake). The class given is cell-based. The following applies: 24 hr exposure, relative to 10 μM Amiodarone, maximum value per unit concentration. On the procedure:
DMEM medium, L-glutamine, penicillin-streptomycin, pyruvic acid, and N-(7-nitrobenz-2-oxa-1,3-diazol-4-yl)-1,2-hexadecanoyl-sn-glycero-3-phosphoethanolamine triethylammonium salt (NBD-PE) were purchased from Invitrogen Corporation. As bovine serum albumin (BSA), a product of Thermo Trace Ltd. (Melbourne, Australia) was used, and as Amiodarone, a product of ICN (Costa Mesa, Calif.) was used. A test compound was used in the form of a 10 mM DMSO solution.
FBS was added at a final concentration of 5 vol % to DMEM medium supplemented with L-glutamine, pyruvic acid and penicillin-streptomycin and subjected to the experiment. Culture was performed using 5% carbon dioxide gas-95% air as a gas phase in a CO2 incubator at 37° C. HepG2 cells were suspended in a culture medium at 50×10^4 cells/mL, plated in a 96 well plate at 50 μL/well and precultured for 24 hr. After preculture, the culture medium was removed, a culture medium containing 60 μm NBD-PE was added at 50 μL/well, and a culture medium containing 0, 6 μM or 20 μM test compounds were each added at 50 μL/well to HepG2 cells, and the cells were cultured for 24 hr. As a positive control, Amiodarone was used at a final concentration of 10 μM.
After exposure to the test compound for 24 hr, the fluorescence intensity (Ex. 485 nm, Em. 538 nm) of NBD-PE uptaken by the cells was measured by a fluorometer. The measurement value with addition of 0 μM test compound solution was subtracted as a blank, a relative value to the measurement value with addition of 10 μm Amiodarone was calculated, and the maximum value per unit concentration of the test compound was obtained as a phospholipidosis (PLsis) induction potential.

For series [3], the system named is Male F344/Jcl rats fed on high-fat diet. Kind of series: Evaluation of anorectic effect using male F344/Jcl rats fed on high-fat diet. Conditions: 10 mg/kg by gavage, two administrations; food intake from initial administration to 48 hr; relative to control group; obese rat model. In kind it is in vivo. On the procedure:
Male F344/Jcl rats (42-week-old) loaded with a high-fat diet (Research Diets: D12451) from 5 weeks of age were used. From 2 weeks before the start of experiment, the rats were independently raised, a powder high-fat diet (Research Diets: D12451M) was given, tap water (0.5 mL) was administered for acclimation, and thereby the rats were habituated. The food intake from 14:00 the day before the start of experiment to 9:00 the next day was measured, and the rats were grouped based on the food intake and the body weight of the previous day as indices. On the day of the start of experiment and the next day at 16:00, 0.5% methylcellulose solution was administered by gavage to the control group, and 0.5% methylcellulose suspension (10 mg/kg) of the compound was administered by gavage to the compound administration group at 2 mL/kg (6 per group for both control group and compound administration group). The food intake from the initial administration to 48 hr later was measured. The food intake inhibition rate of each compound administration group to the control group was calculated.

The target of series [4] is rat SLC-1 (Rattus norvegicus, UniProt P97639). Nature of the series: MCH receptor antagonistic activity (inhibitory activity, Experimental Example 1). The class given is biochemical.
Series [5] has as its target human SLC-1 (Homo sapiens, UniProt Q99705). The series is described as above. The class given is biochemical.

T1 sequence (Q12809 whole entry): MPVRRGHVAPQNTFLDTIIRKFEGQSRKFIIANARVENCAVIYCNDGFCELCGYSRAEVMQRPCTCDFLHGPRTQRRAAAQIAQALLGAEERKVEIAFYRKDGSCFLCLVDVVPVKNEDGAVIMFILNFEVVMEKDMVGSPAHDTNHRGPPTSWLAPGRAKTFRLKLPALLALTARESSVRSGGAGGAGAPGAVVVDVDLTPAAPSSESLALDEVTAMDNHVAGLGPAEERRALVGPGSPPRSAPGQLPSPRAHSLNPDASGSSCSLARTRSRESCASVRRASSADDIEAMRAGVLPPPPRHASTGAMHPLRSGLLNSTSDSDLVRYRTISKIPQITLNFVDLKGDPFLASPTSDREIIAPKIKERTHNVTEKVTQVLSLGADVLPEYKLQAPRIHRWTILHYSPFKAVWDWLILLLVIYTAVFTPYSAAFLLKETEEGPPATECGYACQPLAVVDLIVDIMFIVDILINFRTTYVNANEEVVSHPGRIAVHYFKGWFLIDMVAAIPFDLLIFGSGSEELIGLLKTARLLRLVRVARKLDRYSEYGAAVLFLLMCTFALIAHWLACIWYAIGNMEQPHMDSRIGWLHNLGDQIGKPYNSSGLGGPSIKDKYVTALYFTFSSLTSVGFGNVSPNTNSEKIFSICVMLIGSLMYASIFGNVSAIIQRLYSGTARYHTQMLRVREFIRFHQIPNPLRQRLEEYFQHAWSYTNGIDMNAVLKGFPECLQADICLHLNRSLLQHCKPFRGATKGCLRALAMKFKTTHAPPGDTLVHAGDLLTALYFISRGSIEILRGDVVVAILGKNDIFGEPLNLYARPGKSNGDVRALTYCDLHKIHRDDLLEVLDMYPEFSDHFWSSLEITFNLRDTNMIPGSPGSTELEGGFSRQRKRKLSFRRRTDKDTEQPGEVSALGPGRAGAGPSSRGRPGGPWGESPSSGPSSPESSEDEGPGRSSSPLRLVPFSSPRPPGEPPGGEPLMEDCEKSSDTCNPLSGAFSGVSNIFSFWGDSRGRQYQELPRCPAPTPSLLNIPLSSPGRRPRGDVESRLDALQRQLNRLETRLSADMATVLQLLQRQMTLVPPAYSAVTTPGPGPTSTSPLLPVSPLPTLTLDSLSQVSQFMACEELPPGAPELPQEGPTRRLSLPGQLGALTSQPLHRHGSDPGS
Sequence of human SLC-1 (Q99705 whole entry): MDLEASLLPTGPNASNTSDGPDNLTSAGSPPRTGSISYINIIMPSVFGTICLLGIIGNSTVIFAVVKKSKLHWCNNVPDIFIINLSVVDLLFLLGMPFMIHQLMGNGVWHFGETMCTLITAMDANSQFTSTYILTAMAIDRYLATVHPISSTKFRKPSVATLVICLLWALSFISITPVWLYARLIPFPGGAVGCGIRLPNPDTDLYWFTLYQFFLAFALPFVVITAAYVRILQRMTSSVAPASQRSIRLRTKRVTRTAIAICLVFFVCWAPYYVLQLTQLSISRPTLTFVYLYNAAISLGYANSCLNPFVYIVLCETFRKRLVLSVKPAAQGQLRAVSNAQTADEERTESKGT
Sequence of rat SLC-1 (P97639 whole entry): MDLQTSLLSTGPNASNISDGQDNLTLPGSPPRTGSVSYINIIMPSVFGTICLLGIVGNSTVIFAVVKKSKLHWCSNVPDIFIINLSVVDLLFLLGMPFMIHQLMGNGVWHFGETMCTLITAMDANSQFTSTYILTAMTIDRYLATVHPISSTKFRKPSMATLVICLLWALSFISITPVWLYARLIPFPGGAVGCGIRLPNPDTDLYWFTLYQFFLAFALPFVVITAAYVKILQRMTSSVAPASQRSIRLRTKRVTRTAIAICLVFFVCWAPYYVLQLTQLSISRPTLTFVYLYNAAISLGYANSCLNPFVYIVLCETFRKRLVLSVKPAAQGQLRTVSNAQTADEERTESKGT

Take `Cc1c(NC(=O)c2ccc(OCC3CC3)cc2)ccc2cc(CN[C@H]3CC[C@H](O)CC3)cnc12` [Com. Ex. 1, 4-(cyclopropylmethoxy)-N-[3-[[(trans-4-hydroxycyclohexyl)amino]methyl]-8-methylquinolin-7-yl]benzamide, reference compound]: the “HERG electric current inhibitory rate (%) of 10 μM compound” value in series [1] is 58%. Further, in series [2], the PLsis induction potential worked out at 23.5.

Regarding `Cc1c(NC(=O)c2ccc(OCC3CC3)cc2)ccc2cc(CNC3CCC(C)(O)CC3)cnc12` (stereo not drawn) [Com. Ex. 2, 4-(cyclopropylmethoxy)-N-[3-[[(trans-4-hydroxy-4-methylcyclohexyl)amino]methyl]-8-methylquinolin-7-yl]benzamide, reference compound], in series [1], the “HERG electric current inhibitory rate (%) of 10 μM compound” value came out at 44.9%. In series [2], the PLsis induction potential was found to be 27.8.

By IC50 is commonly meant the concentration needed to halve the response being measured. High values mean weaker potency, low ones greater potency. For orientation: melting point means the temperature of the solid-liquid transition. The molecule `Cc1c(NC(=O)c2ccc(OC[C@@H]3CCCO3)cc2)ccc2cc(CNC3CCOCC3)cnc12` [Example 31, N-{8-methyl-3-[(tetrahydro-2H-pyran-4-ylamino)methyl]quinolin-7-yl}-4-[(2S)-tetrahydrofuran-2-ylmethoxy]benzamide] registered a melting point of 158 to 159 °C. Further, the “food intake inhibition rate (%)” value in series [3] is on record as 24.8*** %. In addition, the “HERG electric current inhibitory rate (%) of 10 μM compound” value in series [1] worked out at 9.8%. For the same molecule, the midpoint of inhibition in series [4], the IC50, lay at 4.3 nM. Also, the midpoint of inhibition in series [5], the IC50, lay at 3.1 nM. Also, the PLsis induction potential in series [2] is recorded as 1.7.

On to `Cc1c(NC(=O)c2ccc(OC[C@@H]3CCCO3)cc2)ccc2cc(CN[C@H]3CC[C@](C)(O)CC3)cnc12` [Example 50, N-(3-{[(trans-4-hydroxy-4-methylcyclohexyl)amino]methyl}-8-methylquinolin-7-yl)-4-[(2S)-tetrahydrofuran-2-ylmethoxy]benzamide], for which the melting point is 165 °C and 169 °C. Also, the “food intake inhibition rate (%)” value in series [3] was 30.3*** %. Moreover, the “HERG electric current inhibitory rate (%) of 10 μM compound” value in series [1] is 2.1%. The molecule also registered a half-inhibitory concentration (IC50) in series [4] of 3.9 nM. Further, inhibition in series [5] was half-maximal at 2.9 nM (IC50). Also, the PLsis induction potential in series [2] came to 1.4.
